Test results from patent US10022360B2, “Polymeric nanoparticles and methods of making and using same” (priority 2014, dated 2018).

Experiments:
[1] = Blood glucose after acute treatment, non-tumor bearing SCID mice; assay type: in vivo; settings: FIG. 10
[2] = assay type: in vivo; settings: BT-474 xenografts in SCID mice, FIG. 15
in vivo = settings: mouse
Method: NPs from Example 4 were prepared on a larger scale for MTD studies.

Structure (SMILES): NC1(c2ccc(-c3nc4ccn5c(=O)[nH]nc5c4cc3-c3ccccc3)cc2)CCC1 [COMPOUND A, 8-[4-(1-amino-cyclobutyl)phenyl]-9-phenyl-2H-[1,2,4]-triazolo-[3,4-f][1,6]-naphthyridin-3-one]
- hyperglycemia following acute treatment [1]: display hyperglycemia
- MTD dosing / toxicity (percent survival) [2]: exhibited toxicity
- MTD (in vivo): 480 mg/kg
